Test results: patent US7504401B2, “Anti-cancer agents and uses thereof” (Locus Pharmaceuticals, Inc., priority 2003, dated 2009)

Experiments:
Format in all cases: cell-based
[1] = tested on: Jurkat T-cell leukemic cells; experiment: Cell cycle assay, flow cytometry with propidium iodide, Example 126; details: 24 h, 0.5% serum, Table 2
Description: (§1) MCF-7 breast cancer cells and Jurkat T-cell leukemic cells were grown (and maintained) in EMEM and RPMI media, respectively, containing 10% fetal calf serum.
Test agents were added a concentration of 0.1 μM. Twenty-fours after test agent addition, cells were analyzed for cell cycle status as described below.
(§2) Cell cycle status was analyzed by flow cytometry. Briefly, cells were collected and washed with FACs buffer (Pharmingen) and resuspended and fixed in 1 mL of 80% ethanol for 1 hr. Cells were washed with FACs buffer and resuspended in propidium iodide(PI)/RNase staining buffer (Pharmingen). PI is a fluorescent dye that labels nucleic acids such as DNA. The fluorescence within a cell (in the presence of PI) is proportional to the amount of DNA within a cell. The cell content of DNA is an indices of status in the cell cycle. […] Cells in the S phase have DNA content that lies between these extremes.
(§3) For testing of cell cycle effects of test agents the percentage of cells within the G1 and G2/M phase were measured.

[2] = tested on: MCF-7 breast cancer cells; experiment: as above; details: MCF-7 cells, 24 h, 0.5% FCS, Table 2
Description: as §1
Cells were allowed to adhere for 24 hrs. After adherence, cell culture media was changed to that containing 0.5% FCS. Thirty minutes post-media change, test compounds were added at a concentration of 1 μM. Twenty-fours after test agent addition, cells were analyzed for cell cycle status as described below.
as §2, §3

Hela cells = experiment: Cell viability assay (WST-1 colorimetric mitochondrial reduction), Example 125; details: Homo sapiens, 0.5% fetal calf serum, 48-72 hrs
Description: Jurkat and Hela cells were cultured in RPMI and EMEM media, respectively, containing 0.5% fetal calf serum. Cells were plated in a volume of 100 μL in a 96 well format. Test compounds were included in the culture media at concentrations ranging from 1 nM to 10 μM for a period of 48-72 hrs. […] Briefly, 10 μL of WST-1 reagent was included in the culture well for a period of 1 to 4 hrs. The WST-1 reaction was read on a multiwell spectrophotometer as the difference in the absorbance between 450 nm and 600 nm (baseline). Absorbance was proportional to the number of living cells in the culture well. Concentration response curves and IC50 values were calculated using GraphPAD Prism graphing and curve fitting program.

SMILES	Jurkat G2/M Block 0.1 μM [1]	MCF-7 G2/M Block 1 μM [2]	IC50 (Hela cells)
[O-][n+]1cccc(Nc2cc(O)cc(-c3cccc4[nH]ccc34)c2)c1 [3-(1H-Indol-4-yl)-5-(1-oxy-pyridin-3-ylamino)-phenol]	Y (Y indicates a 50% or greater increase in the number of cells in the G2/M phase, as compared to control)	Y (Y indicates a 50% or greater increase in the number of cells in the G2/M phase, as compared to control)	–
CC(=O)N(c1cccnc1)c1cccc(-c2cccc3[nH]ccc23)c1 [N-[3-(1H-Indol-4-yl)-phenyl]-N-pyridin-3-yl-acetamide]	–	–	1 to 30 µM
